Measurements published in patent publication US20250313849A1, “OPTOGENETIC INDUCTION OF MEMBRANELESS ORGANELLES” (UNIVERSITY OF PITTSBURGH-OF THE COMMONWEALTH SYSTEM OF …, priority 2017, published 2025).
Entries after “also recorded” stand apart in the source; their conditions may differ.

B1: Cry2 PHR-[…]NTF-G3BP1: Cry2PHR with G3BP1 NTF2 Domain Deletion Mutation, SEQ ID NO: 94 (protein)
chain: MKMDKKTIVWFRRDLRIEDNPALAAAAHEGSVFPVFIWCPEEEGQFYPGRASRWWMKQSLAHLSQSLKALGSDLTLIKTHNTISAILDCIRVTGATKVVFNHLYDPVSLVRDHTVKEKLVERGISVQSYNGDLLYEPWEIYCEKGKPFTSFNSYWKKCLDMSIESVMLPPPWRLMPITAAAEAIWACSIEELGLENEAEKPSNALLTRAWSPGWSNADKLLNEFIEKQLIDYAKNSKKVVGNSTSLLSPYLHFGEISVRHVFQCARMKQIIWARDKNSEGEESADLFLRGIGLREYSRYICFNFPFTHEQSLLSHLRFFPWDADVDKFKAWRQGRTGYPLVDAGMRELWATGWMHNRIRVIVSSFAVKFLLLPWKWGMKYFWDTLLDADLECDILGWQYISGSIPDGHELDRLDNPALQGAKYDPEGEYIRQWLPELARLPTEWIHHPWDAPLTVLKASGVELGTNYAKPIVDIDTARELLAKAISRTREAQIMIGAAMGFVTEPQEESEEEVEEPEERQQTPEVVPDDSGTFYDQAVVSNDMEEHLEEPVAEPEPDPEPEPEQEPVSEIQEEKPEPVLEETAPEDAQKSSSPAPADIAQTVQEDLRTFSWASVTSKNLPPSGAVPVTGIPPHVVKVPASQPRPESKPESQIPPQRPQRDQRVREQRINIPPQRGPRPIREAGEQGDIEPRRMVRHPDSHQLFIGNLPHEVDKSELKDFFQSYGNVVELRINSGGKLPNFGFVVFDDSEPVQKVLSNRPIMFRGEVRLNVEEKKTRAAREGDRRDNRLRGPGGPRGGLGGGMRGPPRGGMVQKPGFGVGRGLAPRQKLIPMARRAWLEHGHSCFLCEIVIRSQFHTTYEPEA

Assays:
Assay type in all cases: cell-based
[1] = tested on: optogenetically induced stress granule formation; test: Blue light (optogenetically) induced stress granule formation, inhibitor pre-treatment; settings: blue light stimulation; GSK2606414 added 1 hour before, cycloheximide 1 and a half hours before
Method: (§1) FIGS. 22A-22B. […] When endogenous stress granule formation is induced with NaAsO2 (0.5 mM, 30 min treatment), the G3BP1-NcVVDY50W forms stress granules that stain positive for key markers TIAR and eIF4G. When GSK2606414, a PERK kinase inhibitor, is added 1 hour before NaAsO2 treatment, endogenous stress granule formation is attenuated (FIG. 22A). When GSK2606414 is added 1 hour before blue light stimulation, there is no change in stress granule formation (FIG. 22B).
(§2) FIGS. 23A-23B. […] When endogenous stress granule formation is induced with NaAsO2 (0.5 mM, 30 min treatment), the G3BP1-NcVVDY50W forms stress granules that stain positive for the key marker eIF4G. When cycloheximide, a translational inhibitor, is added 1 and a half hours before NaAsO2 treatment, endogenous stress granule formation is attenuated (FIG. 23A).
These light induced stress granules colocalize with key stress granule components, including Ataxin-2, TIAR, G3BP, eIF4G, eIF3H, RPS3, RPS6, TDP-43, FUS mRNA, and PABPC1 (FIGS. 2-9, 12, 13, 18, 20, 22, 23, 24, 25). Furthermore, the colocalization with mRNA (FIGS. 12 and 13) indicates the light induced stress granules are likely inhibiting mRNA translation. Note that the light induced stress granules appear identical to naturally occurring stress granules induced by heat shock treatment for 30 minutes at 42° C. […]

[2] = tested on: endogenous stress granule formation; test: NaAsO2 induced endogenous stress granule formation in cells expressing G3BP1-NcVVDY50W, inhibitor pre-treatment; settings: NaAsO2 0.5 mM, 30 min; GSK2606414 added 1 hour before, cycloheximide 1 and a half hours before
Method: as §1, §2

stress granules = test: Cellular occurrence and structural characteristics of stress granules; settings: NaAsO2 0.5 mM, 30 min; cells expressing G3BP1-NcVVDY50W; Ataxin-2 positive
Method: FIGS. 11A-11D. […] Under normal conditions, G3BP1-NcVVDY50W remains diffuse in the cytoplasm. When endogenous stress granule formation is induced with NaAsO2 (0.5 mM, 30 min treatment), the G3BP1-NcVVDY50W forms stress granules that stain positive for the key marker Ataxin-2, and occur in the cell 11 times on average (FIG. 11A). They also have a defined shape that gives them a defined area (FIG. 11B), diameter (FIG. 11C) and circularity (FIG. 11D).

HEK293 cells [3] = test: Blue light induced stress granules: staining for stress granule markers and mRNA; settings: blue light stimulation
From the text: FIGS. 2A-2B. Blue light induced stress granules using a NcVVDY50W-G3BP1 protein arrangement. […] A DNA arrangement that generates the NcVVDY50W-G3BP1 was developed and expressed in HEK293 cells. Under normal conditions, the NcVVDY50W-G3BP1 remains diffuse in the cytoplasm. When endogenous stress granule formation is induced with heat shock, the NcVVDY50W-G3BP1 forms stress granules that stain positive for key markers including Ataxin-2 and TIAR.
FIG. 5. […] Under normal conditions, G3BP1-NcVVDY50W remains diffuse in the cytoplasm. When endogenous stress granule formation is induced with NaAsO2 (0.5 mM, 30 min treatment), the G3BP1-NcVVDY50W forms stress granules that stain positive for key markers TDP-43 and eIF4G. […] As an example of this technology, DNA arrangements were developed that generated G3BP1-NcVVDY50W, and expressed in HEK293 cells. Under normal conditions, the G3BP1-NcVVDY50W remains diffuse in the cytoplasm. When endogenous stress granule formation is induced with sodium arsenite, the G3BP1-NcVVDY50W forms stress granules that probe positive for key markers, including TDP-43 and eIF4G. […] Inserts are 3D images of stress granules indicated by arrows.
While stress granule dynamics are shown to be altered in these diseases, the true contributions of stress granules to disease pathobiology is unknown since the only current method to form these organelles is to introduce an extracellular stressor (e.g. heat stress at 43° C., exposure to sodium arsenite) which is toxic to cells and ultimately kills the cells being studied. The longest studies of stress granules to date are only on the order of a few hours and so, the importance of these organelles in the initiation of neurodegeneration or cancer cannot be assessed. Therefore, a method to control stress granule formation was developed using light, without the need for any extracellular stressors. To achieve this, the DNA encoding specific photoreceptor protein domains that self-bind with blue light exposure were linked to the DNA of a key protein required for the formation of stress granules, G3BP1 or TIA1. These arrangements were then expressed in HEK293 cells and were tested for their ability to form functional stress granules with various blue light treatment paradigms. It was shown that the LOV photoreceptor domain, from the Vivid protein of N. crassa, which is known to dimerize with blue light exposure, when fused to G3BP1 and exposed to 15-1080 min of 465 nm light at 0.1-1.0 mW/cm2 initiates the formation of a core stress granule structure consisting of the photoreceptors fused to G3BP1 that recruits additional G3BP1 and accessory proteins that comprise stress granules and allow for their maturation. This likely involved the liquid-liquid phase separation (LLPS) and dimerization and oligomerization of G3BP1 (concept represented in FIG. 1).

HEK293 cells [4] = test: Longitudinal live imaging of light induced stress granule dynamics; settings: for dynamics / liquid-like behaviour of light induced stress granules: blue light on/off or chronic
Method: FIG. 15. […] NcVVDY50W-G3BP1 was expressed in HEK293 cells. […] NcVVDY50W-G3BP1 expressing HEK293 cells were longitudinally imaged every 30 seconds and exposed to blue light in between each image for 30 minutes. The light was then removed and cells were imaged every 30 seconds without light in between each image to study the rate of formation and dissociation of the light induced stress granules.
FIGS. 17A-17B. […] FIG. 17A) NcVVDY50W-G3BP1 was expressed in HEK293 cells. Stress granule formation can be temporally controlled with light stimulation at different voltages. FIGS. 17B) NcVVDY50W-G3BP1 expressing HEK293 cells were longitudinally imaged every 30 seconds and exposed to different voltages (1.0V, or 5.0V, or 10.0V) of blue light in between each image for 30 minutes, over a time-course of 6 hours. The light was then removed and cells were imaged every 30 seconds without light in between each image to study the rate of formation of the light induced stress granules.
FIGS. 18A-18E. […] NcVVDY50W-G3BP1 was expressed in HEK293 cells. […] Light paradigms were developed to chronically form stress granules with light for up to 18 hours. The light induced stress granules are positive for both key markers such as PABPC1 and sequester mRNA throughout the time course, indicating they are functional. […] No previous study has been able to induce stress granule formation for more than 2-3 hours as the cells die from the treatment to induce stress granules. Thus, these are the first studies to create chronic stress granules for over 2-3 hours.
(§3) FIGS. 24A-24E. Replacing the G3BP1 NTF2 domain, which is required for G3BP1 self-oligomerization (optoSG), with oligomerizing photoreceptors, is sufficient to initiate the formation of optogenetic stress granules. FIG. 24A) Schematics of an additional approach to seed optoStress Granules (optoSGs) employing truncated G3BP1 protein and replacing the NTF2 oligomerizing domain with a photoreceptor with the capacity to oligomerize (in this instance Cry2-PHR, but also works with chronic stimulation of dimerizing photoreceptor). FIG. 24B) HEK cells expressing Cry2 PHR-[…]NTF-G3BP1 were exposed to blue light LED stimulation for 30 minutes to induce the formation of optoSGs.
FIGS. 25A-25C. OptoStress Granules (optoSGs) (Cry2-delta NTF-G3BP1) display liquid-like properties of membraneless organelles and colocalize with translation initiation factors and mRNA.

protein synthesis = test: De novo protein synthesis, HPG incorporation with Click-iT detection; settings: blue light stimulation; Click-iT detection
Method: FIGS. 14A-14B. […] The major function of endogenous stress granules is to bind mRNAs and halt protein synthesis until the cellular stress is removed. To test this, cells expressing G3BP1-NcVVDY50W were either exposed to blue light stimulation or not for 30 minutes and protein translation was assessed. Prior to the translation assay, cells were treated with cyclohexamide for one hour to inhibit protein synthesis and then the cyclohexamide was removed and cells were provided L-Homopropargylglycine (HPG) for one hour. HPG acts as a methionine amino acid analog and is incorporated into newly synthesized proteins. Click-iT™ chemistry was then performed to detect HPG and cells were imaged. Green signal indicates newly synthesized proteins during the time at which HPG is present in the media.
as §3

| Molecule | optogenetically induced stress granule formation [1] | endogenous stress granule formation [2] | colocalization of blue light induced stress granules with stress granule markers (HEK293 cells [3]) | dynamics / liquid-like behaviour of light induced stress granules (HEK293 cells [4]; HEK293 cells) | further results |
| --- | --- | --- | --- | --- | --- |
| Cn1cc(-c2ccc3c(c2)CCN3C(=O)Cc2cccc(C(F)(F)F)c2)c2c(N)ncnc21 [GSK2606414] | no change | attenuated | – | – | – |
| O=[As]O [NaAsO2, sodium arsenite] | – | – | – | – | occurrence of stress granules in the cell, on average (stress granules): 11 |
| C[C@@H]1C[C@@H]([C@H](O)CC2CC(=O)NC(=O)C2)C(=O)[C@@H](C)C1 [cycloheximide] | inhibited; also recorded: fail to form | attenuated | – | – | – |
| NcVVDY50W-G3BP1: NcVivid Y50W with G3BP1 Full Length Protein, SEQ ID NO: 9 | – | – | stained positive for Ataxin-2 and TIAR; also recorded: colocalize with the key stress granule marker eIF3H | repeatedly formed; also recorded: decrease in number and increase in size | mRNA sequestration by blue light induced stress granules (HEK293 cells [3]): sequester cytoplasmic mRNA; duration of chronically formed stress granules with light (HEK293 cells [4]; HEK293 cells, chronic light, no cell stressors): up to 18 hours |
| B1 | – | – | colocalize with endogenous stress granule markers including PABPC1 and the 40S ribosomal component RPS3; also recorded: colocalize with mature stress granule markers Ataxin2 and eIF4G translational factors | exhibit the liquid-like droplet properties of endogenously formed stress granules | time to optoSG formation (HEK293 cells [4]; HEKs, blue light LED stimulation): 15 min; protein synthesis (HPG signal) with light-induced stress granules (protein synthesis): inhibit cellular protein synthesis to a similar degree as sodium arsenite induced stress granules |
